Results: US20250145641A1, “FUSED BICYCLIC DERIVATIVE, PHARMACEUTICALLY ACCEPTABLE SALT, CRYSTAL FORM THEREOF AND PREPARATION METHOD THEREFOR” (JIANGSU HENGRUI PHARMACEUTICALS CO., LTD., priority 2021, published 2025)
Values belong to the compound of their own block, whether it stands above or below them.

Experiments:
Type in all cases: physicochemical
[1] = Hygroscopicity study (dynamic vapor sorption); conditions: DVS, 25° C.; for Crystal form after hygroscopicity test: two cycles
Experimental: DVS is dynamic vapor sorption: The detection was carried out using SMS DVS Advantage at 25° C. with a humidity change of 50%-95%-0%-95%-50% in steps of 10% (the last step was 5%) (the specific range of humidity was subject to the corresponding pattern, and most methods were listed here), and the judgment standard was that dm/dt was not greater than 0.002%.
Using Surface Measurement Systems advantage 2, starting at a humidity of 50% at 25° C., the humidity range was 0%-95%, the step was 10%, the judgment standard was that the mass change dM/dT of each gradient was less than 0.002%, the running time TMAX of each humidity gradient was 360 min, with two cycles, and the specific results are shown in Table 8.

[2] = Stability of crystal form, influencing factor experiment; conditions: for physical and chemical stability (conclusion): illumination, 40° C. and 60° C., humidity 75% and 92.5%
Experimental: The crystal form A of hydrochloride, the crystal form A of methanesulfonate, and the crystal form α of the acetate were placed flat and left open. The stability of the samples was investigated under conditions of illumination (4500 Lux), high temperature (40° C., 60° C.), and high humidity (RH 75%, RH 92.5%), and the sampling investigation period was 30 days.

[3] = Long-term/accelerated stability study; conditions: for physical and chemical stability (conclusion): 25° C./60 RH and 40° C./75 RH, 6 months
Experimental: The crystal form A of hydrochloride, the crystal form A of methanesulfonate, and the crystal form α of acetate were placed at 25° C./60% RH and 40° C./75% RH to investigate the stability, and the results are shown in Tables 10, 11, and 12 below.

- mass change 0% RH-80.0% RH [1]: 0.31%
- mass change 0.0% RH-95.0% RH [1]: 0.43%
- Crystal form after hygroscopicity test [1]: Untransformed
- Crystal form ([2]; 40° C., 5 days, open): Untransformed
- Purity % ([2]; 40° C., 5 days, open): 99.9%
- Crystal form ([2]; 40° C., 10 days, open): Untransformed
- Purity % ([2]; 40° C., 10 days, open): 99.9%
- Crystal form ([2]; 40° C., 30 days, open): Untransformed
- Purity % ([2]; 40° C., 30 days, open): 99.9%
- Crystal form ([2]; 60° C., 5 days, open): Untransformed
- Purity % ([2]; 60° C., 5 days, open): 99.9%
- Crystal form ([2]; 60° C., 10 days, open): Untransformed
- Purity % ([2]; 60° C., 10 days, open): 99.9%
- Crystal form ([2]; 60° C., 30 days, open): Untransformed
- Purity % ([2]; 60° C., 30 days, open): 99.9%
- Crystal form ([2]; 75% RH, 5 days, open): Untransformed
- Purity % ([2]; 75% RH, 5 days, open): 99.9%
- Crystal form ([2]; 75% RH, 10 days, open): Untransformed
- Purity % ([2]; 75% RH, 10 days, open): 99.9%
- Crystal form ([2]; 75% RH, 30 days, open): Untransformed
- Purity % ([2]; 75% RH, 30 days, open): 99.9%
- Crystal form ([2]; 92.5% RH, 5 days, open): Untransformed
- Purity % ([2]; 92.5% RH, 5 days, open): 99.9%
- Crystal form ([2]; 92.5% RH, 10 days, open): Untransformed
- Purity % ([2]; 92.5% RH, 10 days, open): 99.9%
- Crystal form ([2]; 92.5% RH, 30 days, open): Untransformed
- Purity % ([2]; 92.5% RH, 30 days, open): 99.9%
- Crystal form ([2]; 4500 Lux, 5 days, open): Untransformed
- Purity % ([2]; 4500 Lux, 5 days, open): 99.9%
- Crystal form ([2]; 4500 Lux, 10 days, open): Untransformed
- Purity % ([2]; 4500 Lux, 10 days, open): 99.9%
- Crystal form ([2]; 4500 Lux, 30 days, open): Untransformed
- Purity % ([2]; 4500 Lux, 30 days, open): 99.9%
- Purity % ([2]; Onset, 0 days): 99.9%
- physical and chemical stability (conclusion) ([2]; 30 days): good physical and chemical stability
- Crystal form ([3]; 25° C./60% RH): Untransformed
- Purity % 1 month ([3]; 25° C./60% RH): 99.9%
- Purity % 2 month ([3]; 25° C./60% RH): 99.8%
- Purity % 3 month ([3]; 25° C./60% RH): 99.8%
- Purity % 6 month ([3]; 25° C./60% RH): 99.9%
- Purity % Onset ([3]; 25° C./60% RH): 99.9%
- physical and chemical stability (conclusion) [3]: good physical and chemical stability
- Crystal form ([3]; 40° C./75% RH): Untransformed
- Purity % 1 month ([3]; 40° C./75% RH): 99.9%
- Purity % 2 month ([3]; 40° C./75% RH): 99.8%
- Purity % 3 month ([3]; 40° C./75% RH): 99.8%
- Purity % 6 month ([3]; 40° C./75% RH): 99.8%
- Purity % Onset ([3]; 40° C./75% RH): 99.9%
Structure (SMILES): CC(C)NCC(C(=O)N1C2CCC1CN(c1ncnc3c1C(C)(C)C(=O)N3)C2)c1ccc(Cl)cc1.CS(=O)(=O)O (stereo not drawn) [Crystal form A of methanesulfonate]

- mass change 0% RH-80.0% RH [1]: 0.60%
- mass change 0.0% RH-95.0% RH [1]: 0.79%
- Crystal form after hygroscopicity test [1]: Untransformed
- Crystal form ([2]; 40° C., 5 days, open): Untransformed
- Purity % ([2]; 40° C., 5 days, open): 99.3%
- Crystal form ([2]; 40° C., 10 days, open): Untransformed
- Purity % ([2]; 40° C., 10 days, open): 99.3%
- Crystal form ([2]; 40° C., 30 days, open): Untransformed
- Purity % ([2]; 40° C., 30 days, open): 99.3%
- Crystal form ([2]; 60° C., 5 days, open): Untransformed
- Purity % ([2]; 60° C., 5 days, open): 99.3%
- Crystal form ([2]; 60° C., 10 days, open): Untransformed
- Purity % ([2]; 60° C., 10 days, open): 99.3%
- Crystal form ([2]; 60° C., 30 days, open): Untransformed
- Purity % ([2]; 60° C., 30 days, open): 99.2%
- Crystal form ([2]; 75% RH, 5 days, open): Untransformed
- Purity % ([2]; 75% RH, 5 days, open): 99.3%
- Crystal form ([2]; 75% RH, 10 days, open): Untransformed
- Purity % ([2]; 75% RH, 10 days, open): 99.3%
- Crystal form ([2]; 75% RH, 30 days, open): Untransformed
- Purity % ([2]; 75% RH, 30 days, open): 99.4%
- Crystal form ([2]; 92.5% RH, 5 days, open): Untransformed
- Purity % ([2]; 92.5% RH, 5 days, open): 99.3%
- Crystal form ([2]; 92.5% RH, 10 days, open): Untransformed
- Purity % ([2]; 92.5% RH, 10 days, open): 99.3%
- Crystal form ([2]; 92.5% RH, 30 days, open): Untransformed
- Purity % ([2]; 92.5% RH, 30 days, open): 99.3%
- Crystal form ([2]; 4500 Lux, 5 days, open): Untransformed
- Purity % ([2]; 4500 Lux, 5 days, open): 99.3%
- Crystal form ([2]; 4500 Lux, 10 days, open): Untransformed
- Purity % ([2]; 4500 Lux, 10 days, open): 99.3%
- Crystal form ([2]; 4500 Lux, 30 days, open): Untransformed
- Purity % ([2]; 4500 Lux, 30 days, open): 99.3%
- Purity % ([2]; Onset, 0 days): 99.3%
- physical and chemical stability (conclusion) ([2]; 30 days): good physical and chemical stability
- Crystal form ([3]; 25° C./60% RH): Untransformed
- Purity % 1 month ([3]; 25° C./60% RH): 99.3%
- Purity % 2 month ([3]; 25° C./60% RH): 99.3%
- Purity % 3 month ([3]; 25° C./60% RH): 99.2%
- Purity % 6 month ([3]; 25° C./60% RH): 99.3%
- Purity % Onset ([3]; 25° C./60% RH): 99.3%
- physical and chemical stability (conclusion) [3]: good physical and chemical stability
- Crystal form ([3]; 40° C./75% RH): Untransformed
- Purity % 1 month ([3]; 40° C./75% RH): 99.3%
- Purity % 2 month ([3]; 40° C./75% RH): 99.3%
- Purity % 3 month ([3]; 40° C./75% RH): 99.2%
- Purity % 6 month ([3]; 40° C./75% RH): 99.3%
- Purity % Onset ([3]; 40° C./75% RH): 99.3%
Structure (SMILES): CC(C)NCC(C(=O)N1C2CCC1CN(c1ncnc3c1C(C)(C)C(=O)N3)C2)c1ccc(Cl)cc1.Cl (stereo not drawn) [Crystal form A of hydrochloride]

- mass change 0% RH-80.0% RH [1]: 0.50%
- mass change 0.0% RH-95.0% RH [1]: 0.66%
- Crystal form after hygroscopicity test [1]: Untransformed
- Crystal form ([2]; 40° C., 5 days, open): Untransformed
- Purity % ([2]; 40° C., 5 days, open): 99.6%
- Crystal form ([2]; 40° C., 10 days, open): Untransformed
- Purity % ([2]; 40° C., 10 days, open): 99.6%
- Crystal form ([2]; 40° C., 30 days, open): Untransformed
- Purity % ([2]; 40° C., 30 days, open): 99.0%
- Crystal form ([2]; 60° C., 5 days, open): Untransformed
- Purity % ([2]; 60° C., 5 days, open): 99.6%
- Crystal form ([2]; 60° C., 10 days, open): Untransformed
- Purity % ([2]; 60° C., 10 days, open): 99.5%
- Crystal form ([2]; 60° C., 30 days, open): Untransformed
- Purity % ([2]; 60° C., 30 days, open): 98.8%
- Crystal form ([2]; 75% RH, 5 days, open): Untransformed
- Purity % ([2]; 75% RH, 5 days, open): 99.7%
- Crystal form ([2]; 75% RH, 10 days, open): Untransformed
- Purity % ([2]; 75% RH, 10 days, open): 99.7%
- Crystal form ([2]; 75% RH, 30 days, open): Untransformed
- Purity % ([2]; 75% RH, 30 days, open): 99.7%
- Crystal form ([2]; 92.5% RH, 5 days, open): Untransformed
- Purity % ([2]; 92.5% RH, 5 days, open): 99.7%
- Crystal form ([2]; 92.5% RH, 10 days, open): Untransformed
- Purity % ([2]; 92.5% RH, 10 days, open): 99.7%
- Crystal form ([2]; 92.5% RH, 30 days, open): Untransformed
- Purity % ([2]; 92.5% RH, 30 days, open): 99.7%
- Crystal form ([2]; 4500 Lux, 5 days, open): Untransformed
- Purity % ([2]; 4500 Lux, 5 days, open): 99.7%
- Crystal form ([2]; 4500 Lux, 10 days, open): Untransformed
- Purity % ([2]; 4500 Lux, 10 days, open): 99.7%
- Crystal form ([2]; 4500 Lux, 30 days, open): Untransformed
- Purity % ([2]; 4500 Lux, 30 days, open): 99.6%
- Purity % ([2]; Onset, 0 days): 99.7%
- Crystal form ([3]; 25° C./60% RH): Untransformed
- Purity % 1 month ([3]; 25° C./60% RH): 99.7%
- Purity % 2 month ([3]; 25° C./60% RH): 99.7%
- Purity % 3 month ([3]; 25° C./60% RH): 99.7%
- Purity % 6 month ([3]; 25° C./60% RH): 99.7%
- Purity % Onset ([3]; 25° C./60% RH): 99.7%
- physical and chemical stability (conclusion) [3]: good physical and chemical stability
- Crystal form ([3]; 40° C./75% RH): Untransformed
- Purity % 1 month ([3]; 40° C./75% RH): 99.7%
- Purity % 2 month ([3]; 40° C./75% RH): 99.6%
- Purity % 3 month ([3]; 40° C./75% RH): 99.6%
- Purity % 6 month ([3]; 40° C./75% RH): 99.5%
- Purity % Onset ([3]; 40° C./75% RH): 99.7%
Structure (SMILES): CC(=O)O.CC(C)NCC(C(=O)N1C2CCC1CN(c1ncnc3c1C(C)(C)C(=O)N3)C2)c1ccc(Cl)cc1 (stereo not drawn) [Crystal form α of acetate]
- physical and chemical stability (conclusion) ([2]; 30 days): good physical stability and good chemical stability under high humidity and illumination conditions
